# In patent US9381186B2, “Substituted chroman derivatives, medicaments and use in therapy” (MEI Pharma, Inc., priority 2004, dated 2016):
# Where two headings read alike, the source gives them in different places.
# What was measured:
# [1] = tested on: RK (rabbit kidney) cells; test: Cytotoxicity (MTT proliferation assay) against rabbit kidney cells; format: cell-based
# Method: (§1) The normal cell line NFF (neonatal foreskin fibroblasts) was a gift from Dr. Peter Parsons (Queensland Institute of Medical Research). RK (rabbit kidney) cells were obtained from Miller Whalley (Macquarie University). Both cell lines were cultured in RPMI supplemented with 10% FCS (CSL, Australia), penicillin (100 U/ml), streptomycin ([…]), L-glutamine (2 mM) and sodium bicarbonate (1.2 g/L), and cultured at 37° C. in a humidified atmosphere of 5% CO2
# (§2) IC50 values were determined for each cell line. Cells were seeded in 96-well plates at an appropriate cell density as determined from growth kinetics analysis and cultured for 5 days in the absence and presence of the test compounds. Cell proliferation was assessed after the addition of 20 μl of 3-4,5 dimethylthiazol-2,5-diphenyl tetrazolium bromide (MTT, 2.5 mg/ml in PBS, Sigma) for 3-4 hrs at 37° C. according to manufacturer's instructions. IC50 values were calculated from semi-log plots of % of control proliferation on the y-axis against log dose on the x-axis.
# [2] = tested on: NFF (neonatal foreskin fibroblasts); test: Cytotoxicity (MTT proliferation assay) against neonatal foreskin fibroblasts; format: cell-based, Human; settings: Homo sapiens, Fibroblast
# Method: as §1, §2
# [3] = tested on: CP70; test: MTT proliferation assay, ovarian CP70; format: cell-based
# [4] = tested on: PC3; test: MTT proliferation assay, prostate PC3; format: cell-based; settings: Homo sapiens, PC-3
# Method: (§3) An cultures were supplemented with 10% FCS (CSL, Australia), penicillin (100 U/ml), streptomycin ([…]), L-glutamine (2 mM) and sodium bicarbonate (1.2 g/L), and cultured at 37° C. in a humidified atmosphere of 5% CO2. All cell lines were purchased from ATCC (Maryland, USA) except where noted.
# as §2
# [5] = tested on: MDA-MB-468; test: MTT proliferation assay, breast MDA-MB-468; format: cell-based; settings: Homo sapiens
# [6] = tested on: HTB-138; test: MTT proliferation assay, glioma HTB-138; format: cell-based
# Method: as §3, §2
# [7] = tested on: HPAC; test: MTT proliferation assay, pancreatic HPAC; format: cell-based; settings: Homo sapiens, Table 2.2
# [8] = tested on: NCI-H23; test: MTT proliferation assay, lung NCI-H23; format: cell-based; settings: Homo sapiens; Lung NCI-H23, Table 2.1; read-out: cytoxicity (IC50)
# Method: as §3, §2
# [9] = tested on: HT-29; test: MTT proliferation assay, colorectal HT-29; format: cell-based; settings: for IC50: Homo sapiens
# Method: as §3, §2
# [10] = tested on: MM200; test: MTT proliferation assay, melanoma MM200; format: cell-based
# [11] = tested on: CCRF-CEM; test: MTT proliferation assay, leukaemia (ALL) CCRF-CEM; format: cell-based; settings: Homo sapiens, Table 2.2
# Method: as §3, §2
# [12] = tested on: NCI-H460; test: MTT proliferation assay, NSC lung NCI-H460; format: cell-based; settings: Homo sapiens; NSC Lung NCI-H460, Table 2.2
# Method: as §3, §2
# [13] = Oral pharmacokinetics in female BALB/c mice; format: in vivo, mouse
# Method: Compound No. 1 labelled above was prepared as homogenous suspensions in 1% CMC (m:v, water). The formulation was delivered orally by gavage to female BALB/c mice at a dosage of 50 mg/kg. Three animals were allocated to each timepoint (15 min, 30 min, 1 hr, 4 hr and 24 hr). At each respective timepoint, animals were euthanised by cervical dislocation and blood collected. The concentration of free compound was analysed by mass spectroscopy.
# [14] = tested on: murine macrophages (RAW 264.7) stimulated with LPS; test: Eicosanoid synthesis in LPS-stimulated RAW 264.7 macrophages; format: cell-based, mouse; settings: test compound 10 μM, LPS 50 ng/ml, 16 hrs; negative = inhibition
# Method: The mouse macrophage cell line RAW 264.7 was cultured in DMEM supplemented with foetal calf serum (FCS), 2 mM glutamine and 50 U/ml penicillin/streptomycin. Subconfluent cells were detached from the flask by gentle scraping and 24-well plates seeded at 5×10^5 cells per well and allowed to adhere for 1 hr. Cells were then treated either test compound at a concentration of 10 μM (in 0.025% DMSO) or vehicle alone, and incubated for 1 hr. LPS 50 ng/ml (LPS—Sigma-Aldrich) was then added. After incubation for 16 hrs, culture media was collected and stored at −80° C. for ecosanoid measurements using enzyme immunometric assays (PGE2 and TXB2—Cayman Chemical).
# [15] = Preliminary formulation study, solubility in 20% HPBCD; format: physicochemical; settings: aqueous with cosolvent or surfactant or cyclodextrin, preliminary formulation studies
# [16] = tested on: cancer cell lines; test: Proliferation assays, panel of cancer cell lines; format: cell-based; settings: CP70, PC3, MDA-MB-468, HTB-138 and lung cancer cell lines
smiles,measurement,setting,value
"COc1ccc(C2c3ccc(O)c(C)c3OCC2c2ccc(O)cc2)cc1 (stereo not shown) [Compound 1, 3-(4-hydroxyphenyl)-4-(4-methoxyphenyl)-8-methyl-3,4-dihydro-2H-chromen-7-ol]",IC50,"[1]; Oryctolagus cuniculus, rabbit kidney cells",> 60 µM
same,IC50,[1]; Rabbit Kidney cells,> 60 µM
same,IC50,"[2]; Neonatal Foreskin Fibroblasts (Human, NFF), read-out: IC50",~2 µM
same,IC50,"[2]; non-transformed neonatal foreskin fibroblasts, read-out: IC50",2 µM
same,IC50,"[2]; text says rabbit kidney cells, values are those of the NFF line of Table 1, read-out: degree of toxicity (IC50)",2 µM
same,IC50,"[3]; Ovarian CCP70, Table 2.1, read-out: cytoxicity (IC50)",1.7 µM
same,IC50,"[3]; Ovarian CP70, Table 2.2, read-out: IC50",1.9 ± 0.4 µM
same,IC50,"[4]; Prostate PC3, Table 2.1, read-out: cytoxicity (IC50)",1.7 ± 0.5 µM
same,IC50,"[4]; Prostate PC3, Table 2.2, read-out: IC50",1.6 ± 0.8 µM
same,IC50,"[5]; Breast MDA-MB-468, Table 2.1, read-out: cytoxicity (IC50)",0.6 ± 0.01 µM
same,IC50,"[5]; Breast MDA-MB-468, Table 2.2, read-out: IC50",1 ± 0.6 µM
same,IC50,"[6]; Glioma HTB-138, Table 2.1, read-out: cytoxicity (IC50)",1.1 µM
same,IC50,"[6]; Glioma HTB-138, Table 2.2, read-out: IC50",1.16 µM
same,IC50,[7],51.7 ± 8 µM
same,IC50,[8],1.9 ± 0.1 µM
same,IC50,"[9]; Colorectal HT-29, Table 2.1, read-out: cytoxicity (IC50)",17.4 µM
same,IC50,"[9]; Colorectal HT-29, Table 2.2, read-out: IC50",15.7 ± 2.4 µM
same,activity in words,[9]; colorectal cell line HT-29,moderately active
same,IC50,"[10]; Melanoma MM200, Table 2.1, read-out: cytoxicity (IC50)",1 ± 0.01 µM
same,IC50,"[10]; Melanoma MM200, Table 2.2, read-out: IC50",0.78 ± 0.23 µM
same,IC50,[11],1.6 ± 1.2 µM
same,IC50,[12],1.2 ± 0.45 µM
same,concentration at 1 h,"[13]; female, BALB/c, mouse, faeces, po, 50 mg/kg, oral 50 mg/kg, Time 1 (head prints days), read-out: Faeces Free",1060 ± 913 µM
same,concentration at 4 h,"[13]; female, BALB/c, mouse, faeces, po, 50 mg/kg, oral 50 mg/kg, Time 4 (head prints days), read-out: Faeces Free",1790 ± 625 µM
same,concentration at 24 h,"[13]; female, BALB/c, mouse, faeces, po, 50 mg/kg, oral 50 mg/kg, Time 24 (head prints days), read-out: Faeces Free",800 ± 670 µM
same,half-life,"[13]; female, BALB/c, mouse, serum, 50 mg/kg, oral, sera, read-out: half life",~30 min
same,concentration at 0.25 h,"[13]; female, BALB/c, mouse, serum, po, 50 mg/kg, oral 50 mg/kg, Time 0.25 (head prints days), read-out: Serum Free",27.3 ± 23 µM
same,concentration at 0.5 h,"[13]; female, BALB/c, mouse, serum, po, 50 mg/kg, oral 50 mg/kg, Time 0.5 (head prints days), read-out: Serum Free",8.2 ± 6.5 µM
same,concentration at 1 h,"[13]; female, BALB/c, mouse, serum, po, 50 mg/kg, oral 50 mg/kg, Time 1 (head prints days), read-out: Serum Free",2.4 ± 1.6 µM
same,concentration at 4 h,"[13]; female, BALB/c, mouse, serum, po, 50 mg/kg, oral 50 mg/kg, Time 4 (head prints days), read-out: Serum Free",0.3 ± 0.02 µM
same,concentration at 24 h,"[13]; female, BALB/c, mouse, serum, po, 50 mg/kg, oral 50 mg/kg, Time 24 (head prints days), read-out: Serum Free",0.05 ± 0.02 µM
same,concentration at 0.25 h,"[13]; female, BALB/c, mouse, serum, po, 50 mg/kg, oral, Time 0.25, Table 4, read-out: Free concentration, comparative oral pharmacokinetic data",27.3 ± 23 µM
same,concentration at 0.5 h,"[13]; female, BALB/c, mouse, serum, po, 50 mg/kg, oral, Time 0.5, Table 4, read-out: Free concentration, comparative oral pharmacokinetic data",8.2 ± 6.5 µM
same,concentration at 1 h,"[13]; female, BALB/c, mouse, serum, po, 50 mg/kg, oral, Time 1, Table 4, read-out: Free concentration, comparative oral pharmacokinetic data",2.4 ± 1.6 µM
same,concentration at 4 h,"[13]; female, BALB/c, mouse, serum, po, 50 mg/kg, oral, Time 4, Table 4, read-out: Free concentration, comparative oral pharmacokinetic data",0.33 ± 0.02 µM
same,concentration at 24 h,"[13]; female, BALB/c, mouse, serum, po, 50 mg/kg, oral, Time 24, Table 4, read-out: Free concentration, comparative oral pharmacokinetic data",0.05 ± 0.02 µM
same,concentration at 30 min,"[13]; female, BALB/c, mouse, serum, po, 50 mg/kg, oral, after 30 min, read-out: free concentration in sera",8.2 µM
same,concentration at 1 hr,"[13]; female, BALB/c, mouse, serum, po, 50 mg/kg, oral, after 1 hr, read-out: free concentration in sera",2.4 µM
same,concentration at 0.25 h,"[13]; female, BALB/c, mouse, urine, po, 50 mg/kg, oral 50 mg/kg, Time 0.25 (head prints days), read-out: Urine Free",17.1 ± 7.2 µM
same,concentration at 0.5 h,"[13]; female, BALB/c, mouse, urine, po, 50 mg/kg, oral 50 mg/kg, Time 0.5 (head prints days), read-out: Urine Free",22.1 ± 1.5 µM
same,concentration at 1 h,"[13]; female, BALB/c, mouse, urine, po, 50 mg/kg, oral 50 mg/kg, Time 1 (head prints days), read-out: Urine Free",26.3 ± 2.2 µM
same,concentration at 4 h,"[13]; female, BALB/c, mouse, urine, po, 50 mg/kg, oral 50 mg/kg, Time 4 (head prints days), read-out: Urine Free",1.1 ± 0.1 µM
same,concentration at 24 h,"[13]; female, BALB/c, mouse, urine, po, 50 mg/kg, oral 50 mg/kg, Time 24 (head prints days), read-out: Urine Free",0.1 ± 0.1 µM
same,share of compound recovered from faeces present in free form,[13]; oral,~100%
same,Cmax of free compound in sera,"[13]; oral, 15 minutes post administration",27.3 µM
same,free concentration relative to phenoxodiol,"[13]; oral, after 15 and 30 min",10-20 fold
same,concentration relative to phenoxodiol,"[13]; oral, after 1 hr",Approximately 2 fold
same,share present as the free entity in urine,"[13]; oral, at any time-point",≤ 2%
same,Percentage change in PGE2 synthesis compared with vehicle,[14],−53.8%
same,Percentage change in TXB2 synthesis compared with vehicle,[14],−15.9%
same,solubility,[15],11.2 mg/mL
same,activity relative to phenoxodiol (IC50 comparison),[16],2-10 fold
